Experimental data from ChEMBL document CHEMBL1201861, “Genomics of Drug Sensitity in Cancer screening data, Wellcome Trust Sanger Institute”.

Legend:
Experiment in all cases: cells
Details in all cases: Homo sapiens
[1] = tested on: Calu-6; type: functional, cell-based;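 further: growth of human Calu-6 cells, read out by a cell viability assay, IC50 marking inhibition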
Description: SANGER: Inhibition of human Calu-6 cell growth in a cell viability assay.

[2] = tested on: D-502MG; type: functional, cell-based
Description: SANGER: Inhibition of human D-502MG cell growth in a cell viability assay.

[3] = tested on: DEL; type: functional, cell-based;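 further: growth inhibition of the human DEL cell line, read out with a cell viability assay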
Description: SANGER: Inhibition of human DEL cell growth in a cell viability assay.

[4] = tested on: DJM-1; type: functional, cell-based;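 further: growth inhibition of human DJM-1 cells, read out by a cell viability assay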
Description: SANGER: Inhibition of human DJM-1 cell growth in a cell viability assay.

[5] = tested on: DMS-114; type: functional, cell-based
[6] = tested on: EM-2; type: functional, cell-based;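 further: growth inhibition of EM-2 cells, read out with a cell viability assay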
Description: SANGER: Inhibition of human EM-2 cell growth in a cell viability assay.

[7] = tested on: ES3; type: functional, cell-based;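 further: growth inhibition of ES3 cells, read out with a cell viability assay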
Description: SANGER: Inhibition of human ES3 cell growth in a cell viability assay.

[8] = tested on: ES4; type: functional, cell-based;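 further: growth inhibition of human ES4 cells, read out by a cell viability assay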
Description: SANGER: Inhibition of human ES4 cell growth in a cell viability assay.

[9] = tested on: ES6; type: functional, cell-based;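 further: growth inhibition of human ES6 cells, read out with a cell viability assay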
Description: SANGER: Inhibition of human ES6 cell growth in a cell viability assay.

[10] = tested on: ES7; type: functional, cell-based;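 further: growth inhibition of cultured human ES7 cells, read out as cell viability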
Description: SANGER: Inhibition of human ES7 cell growth in a cell viability assay.

[11] = tested on: ES8; type: functional, cell-based;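 further: growth inhibition of human ES8 cells, read out with a cell viability assay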
Description: SANGER: Inhibition of human ES8 cell growth in a cell viability assay.

[12] = tested on: EW-24; type: functional, cell-based;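 further: human EW-24 cancer cell line, growth inhibition read out via a cell viability assay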
Description: SANGER: Inhibition of human EW-24 cell growth in a cell viability assay.

[13] = tested on: GCIY; type: functional, cell-based;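 further: growth inhibition of the human GCIY cell line, read out by a cell viability assay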
Description: SANGER: Inhibition of human GCIY cell growth in a cell viability assay.

[14] = tested on: GT3TKB; type: functional, cell-based;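 further: growth inhibition of the cell line, read out with a cell viability assay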
Description: SANGER: Inhibition of human GT3TKB cell growth in a cell viability assay.

[15] = tested on: HC-1; type: functional, cell-based;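 further: growth inhibition of HC-1 cells measured by a cell viability assay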
Description: SANGER: Inhibition of human HC-1 cell growth in a cell viability assay.

[16] = tested on: HCC1187; type: functional, cell-based;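 further: growth inhibition of HCC1187 cells, read out with a cell viability assay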
Description: SANGER: Inhibition of human HCC1187 cell growth in a cell viability assay.

[17] = tested on: HCC2218; type: functional, cell-based;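 further: cell viability assay read-out, with IC50 given as the concentration that inhibits growth of the cell line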
Description: SANGER: Inhibition of human HCC2218 cell growth in a cell viability assay.

[18] = tested on: HDLM-2; type: functional, cell-based;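 further: cell viability assay measuring suppression of HDLM-2 proliferation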
Description: SANGER: Inhibition of human HDLM-2 cell growth in a cell viability assay.

[19] = tested on: HEL; type: functional, cell-based;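 further: growth inhibition of HEL cells, read out with a cell viability assay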
Description: SANGER: Inhibition of human HEL cell growth in a cell viability assay.

[20] = tested on: HOP-62; type: functional, cell-based;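 further: cell growth inhibition determined with a viability assay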
Description: SANGER: Inhibition of human HOP-62 cell growth in a cell viability assay.

[21] = tested on: IA-LM; type: functional, cell-based;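 further: cell viability assay measuring growth inhibition of human IA-LM cells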
Description: SANGER: Inhibition of human IA-LM cell growth in a cell viability assay.

[22] = tested on: IST-MEL1; type: functional, cell-based;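 further: growth inhibition of the cell line, read out with a cell viability assay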
Description: SANGER: Inhibition of human IST-MEL1 cell growth in a cell viability assay.

[23] = tested on: JVM-3; type: functional, cell-based;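 further: growth inhibition of human JVM-3 cells, read out with a cell viability assay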
Description: SANGER: Inhibition of human JVM-3 cell growth in a cell viability assay.

[24] = tested on: KGN; type: functional, cell-based;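 further: growth inhibition of KGN cells, read out with a cell viability assay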
Description: SANGER: Inhibition of human KGN cell growth in a cell viability assay.

[25] = tested on: KP-N-YS; type: functional, cell-based;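 further: cell viability assay measuring inhibition of cell line growth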
Description: SANGER: Inhibition of human KP-N-YS cell growth in a cell viability assay.

[26] = tested on: L-363; type: functional, cell-based
Description: SANGER: Inhibition of human L-363 cell growth in a cell viability assay.

[27] = tested on: LAMA-84; type: functional, cell-based;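 further: growth inhibition of LAMA-84 cells, read out with a cell viability assay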
Description: SANGER: Inhibition of human LAMA-84 cell growth in a cell viability assay.

[28] = tested on: LU-139; type: functional, cell-based
Description: SANGER: Inhibition of human LU-139 cell growth in a cell viability assay.

[29] = tested on: MC116; type: functional, cell-based;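 further: growth inhibition of MC116 cells, read out with a cell viability assay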
Description: SANGER: Inhibition of human MC116 cell growth in a cell viability assay.

[30] = tested on: MHH-PREB-1; type: functional, cell-based;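 further: cell viability assay measuring inhibition of proliferation of human MHH-PREB-1 cells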
Description: SANGER: Inhibition of human MHH-PREB-1 cell growth in a cell viability assay.

[31] = tested on: MLMA; type: functional, cell-based;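 further: growth inhibition of MLMA cells (human), determined through a cell viability readout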
Description: SANGER: Inhibition of human MLMA cell growth in a cell viability assay.

[32] = tested on: MS-1; type: functional, cell-based;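 further: growth inhibition of MS-1 cells, read out by cell viability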
Description: SANGER: Inhibition of human MS-1 cell growth in a cell viability assay.

[33] = tested on: MV4-11; type: functional, cell-based, MV-4-11;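 further: cell viability readout measuring growth inhibition of human MV-4-11 cells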
Description: SANGER: Inhibition of human MV-4-11 cell growth in a cell viability assay.

[34] = tested on: MZ1-PC; type: functional, cell-based;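 further: cell viability assay measuring growth inhibition of human MZ1-PC cells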
Description: SANGER: Inhibition of human MZ1-PC cell growth in a cell viability assay.

[35] = tested on: MZ7-mel; type: functional, cell-based;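 further: growth inhibition of human MZ7-mel cells, measured by a cell viability assay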
Description: SANGER: Inhibition of human MZ7-mel cell growth in a cell viability assay.

[36] = tested on: NB13; type: functional, cell-based;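 further: cell viability readout measuring growth inhibition of human NB13 cells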
Description: SANGER: Inhibition of human NB13 cell growth in a cell viability assay.

[37] = tested on: NB5; type: functional, cell-based;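 further: growth inhibition of NB5 cells, read out as cell viability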
Description: SANGER: Inhibition of human NB5 cell growth in a cell viability assay.

[38] = tested on: NB69; type: functional, cell-based;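 further: growth inhibition of NB69 cells, determined by a cell viability assay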
Description: SANGER: Inhibition of human NB69 cell growth in a cell viability assay.

[39] = tested on: NCI-H1299; type: functional, cell-based;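 further: growth inhibition of human NCI-H1299 cells, read out by a cell viability assay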
Description: SANGER: Inhibition of human NCI-H1299 cell growth in a cell viability assay.

[40] = tested on: NCI-H1770; type: functional, cell-based;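 further: growth inhibition of NCI-H1770 cells determined with a viability readout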
Description: SANGER: Inhibition of human NCI-H1770 cell growth in a cell viability assay.

[41] = tested on: NCI-H2126; type: functional, cell-based;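 further: growth inhibition of the cancer cell line, determined with a cell viability readout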
Description: SANGER: Inhibition of human NCI-H2126 cell growth in a cell viability assay.

[42] = tested on: NCI-H23; type: functional, cell-based;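 further: cell viability assay measuring growth inhibition of NCI-H23 cells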
Description: SANGER: Inhibition of human NCI-H23 cell growth in a cell viability assay.

[43] = tested on: NCI-H446; type: functional, cell-based;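 further: growth inhibition of NCI-H446 cells determined by a cell viability assay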
Description: SANGER: Inhibition of human NCI-H446 cell growth in a cell viability assay.

[44] = tested on: NCI-H720; type: functional, cell-based;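 further: growth inhibition of human NCI-H720 cells determined by a cell viability assay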
Description: SANGER: Inhibition of human NCI-H720 cell growth in a cell viability assay.

[45] = tested on: NCI-H747; type: functional, cell-based;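 further: growth inhibition of human NCI-H747 cells, read out by a cell viability assay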
Description: SANGER: Inhibition of human NCI-H747 cell growth in a cell viability assay.

[46] = tested on: NCI-H82; type: functional, cell-based;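 further: growth inhibition of NCI-H82 cells, measured with a cell viability readout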
Description: SANGER: Inhibition of human NCI-H82 cell growth in a cell viability assay.

[47] = tested on: SNU1; type: functional, cell-based;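 further: growth inhibition of human NCI-SNU-1 cells, measured with a cell viability assay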
Description: SANGER: Inhibition of human NCI-SNU-1 cell growth in a cell viability assay.

[48] = tested on: NOS-1; type: functional, cell-based;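 further: growth inhibition of the human NOS-1 cell line, read out with a cell viability assay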
Description: SANGER: Inhibition of human NOS-1 cell growth in a cell viability assay.

[49] = tested on: PSN1; type: functional, cell-based;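 further: suppression of growth of human PSN1 cells, read out by a cell viability assay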
Description: SANGER: Inhibition of human PSN1 cell growth in a cell viability assay.

[50] = tested on: RCC10RGB; type: functional, cell-based;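 further: growth inhibition of human RCC10RGB cells, read out by a cell viability assay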
Description: SANGER: Inhibition of human RCC10RGB cell growth in a cell viability assay.

[51] = tested on: RPMI-8866; type: functional, cell-based
Description: SANGER: Inhibition of human RPMI-8866 cell growth in a cell viability assay.

[52] = tested on: RXF 393; type: functional, cell-based;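 further: growth inhibition of human RXF 393 cells, read out with a cell viability assay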
Description: SANGER: Inhibition of human RXF393 cell growth in a cell viability assay.

[53] = tested on: SBC-1; type: functional, cell-based;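 further: cell viability assay measuring growth inhibition of the SBC-1 cell line, IC50 being the concentration that halves growth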
Description: SANGER: Inhibition of human SBC-1 cell growth in a cell viability assay.

[54] = tested on: SF-126; type: functional, cell-based
Description: SANGER: Inhibition of human SF126 cell growth in a cell viability assay.

[55] = tested on: SK-MEL-2; type: functional, cell-based
Description: SANGER: Inhibition of human SK-MEL-2 cell growth in a cell viability assay.

[56] = tested on: SK-N-DZ; type: functional, cell-based
Description: SANGER: Inhibition of human SK-N-DZ cell growth in a cell viability assay.

[57] = tested on: A3-KAW; type: functional, cell-based
Description: SANGER: Inhibition of human A3-KAW cell growth in a cell viability assay.

[58] = tested on: A388; type: functional, cell-based
Description: SANGER: Inhibition of human A388 cell growth in a cell viability assay.

[59] = tested on: A704; type: functional, cell-based
Description: SANGER: Inhibition of human A704 cell growth in a cell viability assay.

[60] = tested on: BB65-RCC; type: functional, cell-based
Description: SANGER: Inhibition of human BB65-RCC cell growth in a cell viability assay.

[61] = tested on: Becker; type: functional, cell-based
Description: SANGER: Inhibition of human Becker cell growth in a cell viability assay.

[62] = tested on: C8166; type: functional, cell-based
Description: SANGER: Inhibition of human C8166 cell growth in a cell viability assay.

[63] = tested on: TE-11; type: functional, cell-based
Description: SANGER: Inhibition of human TE-11 cell growth in a cell viability assay.

[64] = tested on: TE-12; type: functional, cell-based
Description: SANGER: Inhibition of human TE-12 cell growth in a cell viability assay.

[65] = tested on: TK-10; type: functional, cell-based
Description: SANGER: Inhibition of human TK10 cell growth in a cell viability assay.

[66] = tested on: no-10; type: functional, cell-based
Description: SANGER: Inhibition of human no-10 cell growth in a cell viability assay.

For `N#C/C(=C1/Nc2ccccc2S1)c1ccnc(NCCc2cccnc2)n1`, the IC50 [1] was > 8 µM, the IC50 [2] was > 8 µM and the IC50 [3] was 6.24 µM. The IC50 [4] was > 8 µM, the IC50 [5] was > 8 µM and the IC50 [6] was > 8 µM. For the same compound, the IC50 [7] was > 8 µM, the IC50 [8] was > 8 µM and the IC50 [9] was 4.72 µM. The IC50 [10] was 3.03 µM, the IC50 [11] was > 8 µM and the IC50 [12] was > 8 µM. The IC50 [13] was 5.48 µM, the IC50 [14] was > 8 µM and the IC50 [15] was > 8 µM. The IC50 [16] was 1.81 µM, the IC50 [17] was > 8 µM and the IC50 [18] was > 8 µM. The IC50 [19] was 7.08 µM, the IC50 [20] was > 8 µM and the IC50 [21] was 2.73 µM. For the same compound, the IC50 [22] was > 8 µM, the IC50 [23] was > 8 µM and the IC50 [24] was 5.85 µM. The IC50 [25] was > 8 µM, the IC50 [26] was > 8 µM and the IC50 [27] was > 8 µM. The IC50 [28] was > 8 µM, the IC50 [29] was 3.17 µM and the IC50 [30] was > 8 µM. For the same compound, the IC50 [31] was > 8 µM, the IC50 [32] was > 8 µM and the IC50 [33] was 1.43 µM. The IC50 [34] was > 8 µM, the IC50 [35] was > 8 µM and the IC50 [36] was > 8 µM. For the same compound, the IC50 [37] was > 8 µM, the IC50 [38] was > 8 µM and the IC50 [39] was 4.78 µM. For the same compound, the IC50 [40] was > 8 µM, the IC50 [41] was > 8 µM and the IC50 [42] was > 8 µM. For the same compound, the IC50 [43] was > 8 µM, the IC50 [44] was > 8 µM and the IC50 [45] was 6.03 µM. For the same compound, the IC50 [46] was > 8 µM, the IC50 [47] was > 8 µM and the IC50 [48] was 5.95 µM. The IC50 [49] was > 8 µM, the IC50 [50] was > 8 µM and the IC50 [51] was > 8 µM. The IC50 [52] was > 8 µM, the IC50 [53] was > 8 µM and the IC50 [54] was > 8 µM. For the same compound, the IC50 [55] was > 8 µM, the IC50 [56] was > 8 µM and the IC50 [57] was > 8 µM. For the same compound, the IC50 [58] was > 8 µM, the IC50 [59] was > 8 µM and the IC50 [60] was 6.71 µM. For the same compound, the IC50 [61] was 4.34 µM, the IC50 [62] was 4.47 µM and the IC50 [63] was 0.3 µM. For the same compound, the IC50 [64] was 1.4 µM, the IC50 [65] was 3.74 µM and the IC50 [66] was > 8 µM.
With `CO[C@@]12[C@H](COC(N)=O)C3=C(C(=O)C(C)=C(N)C3=O)N1C[C@@H]1N[C@@H]12` [MITOMYCIN] the IC50 [1] was 0.32 µM, the IC50 [2] was > 16 µM and the IC50 [3] was 0.0484 µM. It also gave an IC50 [4] of 1.03 µM, an IC50 [5] of 2.09 µM and an IC50 [6] of 1.03 µM. The IC50 [7] was < 0.0625 µM, the IC50 [8] was < 0.0625 µM and the IC50 [9] was 0.746 µM. For the same compound, the IC50 [10] was < 0.0625 µM, the IC50 [11] was < 0.0625 µM and the IC50 [12] was 0.783 µM. It also gave an IC50 [13] of 0.411 µM, an IC50 [14] of 0.318 µM and an IC50 [15] of 0.157 µM. The IC50 [16] was 8.92 µM, the IC50 [17] was 0.589 µM and the IC50 [18] was 1.46 µM. It also gave an IC50 [19] of 0.0358 µM, an IC50 [20] of 0.0202 µM and an IC50 [21] of 0.109 µM. The IC50 [22] was < 0.0625 µM, the IC50 [23] was 2.65 µM and the IC50 [24] was 0.207 µM. The IC50 [26] was 0.434 µM, the IC50 [27] was 0.642 µM and the IC50 [28] was 1.22 µM. For the same compound, the IC50 [29] was 1.42 µM, the IC50 [30] was 3.15 µM and the IC50 [31] was 1.31 µM. For the same compound, the IC50 [32] was 0.344 µM, the IC50 [33] was < 0.0625 µM and the IC50 [34] was 0.45 µM. The IC50 [35] was 0.333 µM, the IC50 [36] was 0.646 µM and the IC50 [37] was 0.358 µM. For the same compound, the IC50 [38] was 0.175 µM, the IC50 [39] was 0.218 µM and the IC50 [40] was 0.343 µM. For the same compound, the IC50 [41] was 0.26 µM, the IC50 [42] was 1.21 µM and the IC50 [43] was 12.4 µM. It also gave an IC50 [44] of 1.54 µM, an IC50 [45] of 0.412 µM and an IC50 [46] of 2.8 µM. For the same compound, the IC50 [47] was 0.156 µM, the IC50 [48] was 1.5 µM and the IC50 [49] was < 0.0625 µM. It also gave an IC50 [50] of 1.35 µM, an IC50 [51] of 1.32 µM and an IC50 [52] of 4.39 µM. For the same compound, the IC50 [53] was 0.448 µM, the IC50 [54] was 1.41 µM and the IC50 [55] was 3.97 µM. It also gave an IC50 [56] of 2.39 µM, an IC50 [57] of 0.035 µM and an IC50 [58] of 0.207 µM. The IC50 [59] was 2.38 µM, the IC50 [60] was 0.145 µM and the IC50 [61] was 0.862 µM. For the same compound, the IC50 [62] was 0.932 µM, the IC50 [63] was 0.0918 µM and the IC50 [64] was 0.19 µM. For the same compound, the IC50 [65] was 0.528 µM and the IC50 [66] was 0.3 µM.
